Test results published in ChEMBL document CHEMBL5465560, “Selectivity Literature for EUbOPEN Chemogenomic Library” (2024).

Columns and labels:
[1] = biological target: T1, Serine/threonine-protein kinase DCLK2 (Homo sapiens) (UniProt Q8N568); assay: Selectivity interaction (Kinase screening (Nanosyn)) EUB0000604a DCLK2
T1 sequence (whole entry): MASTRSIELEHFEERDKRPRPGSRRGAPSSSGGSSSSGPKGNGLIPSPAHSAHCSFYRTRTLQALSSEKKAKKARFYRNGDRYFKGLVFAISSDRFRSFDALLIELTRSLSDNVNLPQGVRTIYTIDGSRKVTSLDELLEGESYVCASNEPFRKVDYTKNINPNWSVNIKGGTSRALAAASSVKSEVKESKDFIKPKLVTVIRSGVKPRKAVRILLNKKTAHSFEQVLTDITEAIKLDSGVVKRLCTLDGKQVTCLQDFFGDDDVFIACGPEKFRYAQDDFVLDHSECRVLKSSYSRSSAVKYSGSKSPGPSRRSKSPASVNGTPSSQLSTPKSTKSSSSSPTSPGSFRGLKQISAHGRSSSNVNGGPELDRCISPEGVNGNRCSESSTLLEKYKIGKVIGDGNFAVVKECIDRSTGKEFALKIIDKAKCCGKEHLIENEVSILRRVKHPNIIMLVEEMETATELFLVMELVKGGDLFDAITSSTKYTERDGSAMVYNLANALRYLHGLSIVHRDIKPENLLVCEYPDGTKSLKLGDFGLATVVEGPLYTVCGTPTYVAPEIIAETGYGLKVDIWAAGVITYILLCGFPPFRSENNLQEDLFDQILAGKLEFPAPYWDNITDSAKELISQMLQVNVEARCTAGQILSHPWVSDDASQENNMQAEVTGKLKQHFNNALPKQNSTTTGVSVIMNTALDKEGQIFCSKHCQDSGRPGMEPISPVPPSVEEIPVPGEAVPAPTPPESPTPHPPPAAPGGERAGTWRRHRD

[2] = biological target: Cyclin-dependent kinase 7 (Homo sapiens, UniProt P50613); assay: Selectivity interaction (Ambit KINOMEscan and KiNATiv profiling in Jurkat cells) EUB0000090b CDK7; assay type: cell-based; conditions: at 1 µM
[3] = biological target: T2, Cytoplasmic tyrosine-protein kinase BMX (Homo sapiens) (UniProt P51813); conditions: at 10 µM
T2 sequence (whole entry): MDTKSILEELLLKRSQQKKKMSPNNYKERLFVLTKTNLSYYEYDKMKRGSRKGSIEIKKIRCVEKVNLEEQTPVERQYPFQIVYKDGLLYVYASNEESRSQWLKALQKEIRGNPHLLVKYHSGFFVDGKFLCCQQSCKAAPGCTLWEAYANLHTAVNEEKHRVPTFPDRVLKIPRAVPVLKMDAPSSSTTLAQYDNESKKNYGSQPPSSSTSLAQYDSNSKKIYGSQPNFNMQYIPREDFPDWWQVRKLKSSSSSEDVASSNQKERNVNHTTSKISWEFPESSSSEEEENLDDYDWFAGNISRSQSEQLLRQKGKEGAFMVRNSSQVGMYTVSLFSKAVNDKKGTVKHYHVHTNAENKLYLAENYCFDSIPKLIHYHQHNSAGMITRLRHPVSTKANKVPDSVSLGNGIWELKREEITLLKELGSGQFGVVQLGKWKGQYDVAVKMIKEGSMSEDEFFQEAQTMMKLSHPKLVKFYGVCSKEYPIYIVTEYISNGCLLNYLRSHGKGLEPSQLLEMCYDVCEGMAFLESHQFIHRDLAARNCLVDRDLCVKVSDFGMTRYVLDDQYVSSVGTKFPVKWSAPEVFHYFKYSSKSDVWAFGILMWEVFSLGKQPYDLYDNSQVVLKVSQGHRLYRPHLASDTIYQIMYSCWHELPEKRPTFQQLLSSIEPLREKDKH

[4] = biological target: T3, Serine/threonine-protein kinase TNNI3K (Homo sapiens) (UniProt Q59H18); assay: Selectivity interaction (KinomeScan (DiscoverX)) EUB0000045b TNNI3K
T3 sequence (whole entry): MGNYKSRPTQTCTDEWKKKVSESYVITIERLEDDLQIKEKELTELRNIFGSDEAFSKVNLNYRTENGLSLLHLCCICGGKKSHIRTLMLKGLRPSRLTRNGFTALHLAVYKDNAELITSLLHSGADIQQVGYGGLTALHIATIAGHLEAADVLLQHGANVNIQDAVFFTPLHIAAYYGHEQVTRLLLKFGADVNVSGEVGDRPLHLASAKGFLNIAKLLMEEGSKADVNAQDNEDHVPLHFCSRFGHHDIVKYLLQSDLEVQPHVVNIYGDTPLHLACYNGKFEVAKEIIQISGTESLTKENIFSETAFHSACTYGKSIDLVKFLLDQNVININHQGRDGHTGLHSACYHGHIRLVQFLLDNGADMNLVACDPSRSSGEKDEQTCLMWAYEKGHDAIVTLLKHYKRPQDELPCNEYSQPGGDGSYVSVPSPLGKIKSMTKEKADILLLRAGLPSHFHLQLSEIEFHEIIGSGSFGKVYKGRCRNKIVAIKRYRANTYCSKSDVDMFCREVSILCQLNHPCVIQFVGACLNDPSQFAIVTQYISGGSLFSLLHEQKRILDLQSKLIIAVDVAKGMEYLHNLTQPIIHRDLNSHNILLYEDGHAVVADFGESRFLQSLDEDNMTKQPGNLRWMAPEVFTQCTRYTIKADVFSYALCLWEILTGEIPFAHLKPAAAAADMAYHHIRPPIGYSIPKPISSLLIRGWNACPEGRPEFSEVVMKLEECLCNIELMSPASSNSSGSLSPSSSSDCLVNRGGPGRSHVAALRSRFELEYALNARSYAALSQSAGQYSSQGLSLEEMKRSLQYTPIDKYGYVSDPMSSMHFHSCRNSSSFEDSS

Sequence of Cyclin-dependent kinase 7 (P50613 whole entry): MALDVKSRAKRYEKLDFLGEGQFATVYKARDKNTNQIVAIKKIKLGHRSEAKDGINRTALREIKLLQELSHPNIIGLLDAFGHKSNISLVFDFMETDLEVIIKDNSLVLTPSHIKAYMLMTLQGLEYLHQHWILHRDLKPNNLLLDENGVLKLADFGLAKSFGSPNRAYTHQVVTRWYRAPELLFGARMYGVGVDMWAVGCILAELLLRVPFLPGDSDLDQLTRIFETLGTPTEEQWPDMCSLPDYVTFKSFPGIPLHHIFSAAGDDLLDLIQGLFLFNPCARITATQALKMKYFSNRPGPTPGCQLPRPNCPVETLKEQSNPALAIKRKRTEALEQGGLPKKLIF

Which % of inhibition [1] does the source give for `Cc1cnc(Nc2ccc(F)cc2Cl)nc1-c1c[nH]c(C(=O)N[C@H](CO)c2cccc(Cl)c2)c1` here?
Its % of inhibition is 1%.

Which % of control [2] does the source give for `CN(C)C/C=C/C(=O)Nc1ccc(C(=O)N2CCCC(Nc3ncc(Cl)c(-c4c[nH]c5ccccc45)n3)C2)cc1` (stereo not given) here?
Its % of control is 28%.

`CCN(CC)CCCCNc1ncc2cc(-c3cc(OC)cc(OC)c3)c(NC(=O)NC(C)(C)C)nc2n1` was tested. Which % of control [3] did it give?
Its % of control is 100%.

With `C=CC(=O)Nc1cc(-n2c(=O)ccc3cnc4ccc(-c5ccc(NS(C)(=O)=O)cc5)cc4c32)ccc1C` as the compound, how does the % of control ([4]; at 1 µM) read?
Its % of control is 100%.

What about the % of control ([4]; at 10 µM) of the same compound?
Its % of control is 77%.
